Measured values taken from US20190241569A1, “3-(ARYL OR HETEROARYL) METHYLENEINDOLIN-2-ONE DERIVATIVES AS INHIBITORS OF CANCER STEM CELL PATHWAY KINASES FOR THE TREATMENT OF CANCER” (Boston Biomedical, Inc., priority 2013, published 2019).
Read-outs that look alike come from different tables or passages of the source.

Assays:
A549 = experiment: Bulk cancer cells, Cell Titer-Glo 72 hours (Test Example 2); assay type: cell-based; settings: Homo sapiens
Procedure: (§1) Tubes of 3× drug (60 uM in 500 uL complete media) were prepared from 5 mM stock solutions in DMSO. […] To treat cells, 50 uL of drug from the dilution plate was removed and added to the cell plates. […] Cells were harvested 72 hours after drug addition using Cell Titer-Glo (Promega) and luminescence measured on a plate reader.

ACHN = experiment: as above; assay type: cell-based; settings: Homo sapiens, ACHN, 72 h
Procedure: as §1

FaDu = experiment: as above; assay type: cell-based; settings: Homo sapiens
Procedure: as §1

FaDu CSC = experiment: Cancer stem cells, Cell Titer-Glo 72 hours (Test Example 3); assay type: cell-based; settings: Homo sapiens, FaDu, 72 h
A549 CSC = experiment: as above; assay type: cell-based; settings: Homo sapiens
ACHN CSC = experiment: as above; assay type: cell-based; settings: Homo sapiens, ACHN, 72 h
p-AMPK Thr172 = experiment: Kinase inhibition, Western blot in HeLa cells (Test Example 5); assay type: cell-based; settings: Homo sapiens, 6 hours, DMSO = 100, read-out: p-AMPK Relative Intensity (%)
Procedure: (§2) HeLa cells were treated with 5 uM of the indicated compound for 6 hours. Following compound incubation, cells were washed twice with ice-cold PBS and lysed in lysis buffer (50 mM HEPES, pH 7.5, 1% Nonidet P40, 150 mM NaCl, 1 mM EDTA, 1× protease inhibitor cocktail (Promega)). 30 micrograms of soluble protein was separated by SDS-PAGE and transferred to PVDF membranes. Primary antibodies against p-AMPK Thr172, p-RPS6 Ser235/236, p-RPS6 Ser240/244, and Tubulin (Cell Signaling Technology) were used. The antigen-antibody complexes were visualized by enhanced chemiluminescence (BioRad). The results are shown below in Tables 17A-17E.

p-RPS6 Ser235/236 = experiment: as above; assay type: cell-based; settings: Homo sapiens, 6 hours, DMSO = 100, read-out: p-RPS6 Ser235/236 Relative Intensity (%)
Procedure: as §2

p-RPS6 Ser240/244 = experiment: as above; assay type: cell-based; settings: Homo sapiens, 6 hours, DMSO = 100, read-out: p-RPS6 Ser240/244 Relative Intensity (%)
Procedure: as §2

human RIOK2 protein = biological target: T1, human RIOK2 protein (Homo sapiens, UniProt Q9BVS4); experiment: RIOK2 autophosphorylation ELISA (Test Example 4); assay type: biochemical
T1 construct: glutathione S-transferase is fused to N-terminal of a full-length human RIOK2 protein; GST (glutathione S-transferase) (N); purchased CarnaBio, Inc; host or cells: baculovirus-Sf21 cell expression system
Procedure: A protein in which glutathione S-transferase is fused to N-terminal of a full-length human RIOK2 protein was used as a recombinant human RIOK2 protein. The protein was prepared using a baculovirus-Sf21 cell expression system from CarnaBio, Inc. A kinase reaction solution was prepared by mixing 25 μg/mL of the recombinant human RIOK2 protein and 100 μM of ATP in 20 μl of kinase reaction buffer (50 mM Tris-HCl, 10 mM MgCl2, 10 mM MnCl2, 1 mM DTT, 0.01% Brij, 1× PhosSTOP (manufactured by Roche Applied Science)), and was incubated at a temperature of 30° C. for 1 hour. After adding 30 μl of 40 mM EDTA solution to this kinase reaction solution, the kinase reaction solution was transferred to a MaxiSorp 96 well plate (manufactured by Nunc). Thereafter, phosphorylated human RIOK2 protein was allowed to adsorb onto the wells by leaving the plate in a refrigerator overnight.
The following day, the supernatant was removed, and the wells were washed three times with ELISA buffer (20 mM Tris-HCl, 150 mM NaCl, 0.2% Tween-20, 0.1% BSA). Thereafter, 100 μl of Blocking-One P (product name; manufactured by Nacalai Tesque, Inc.) was applied to the wells, and a blocking treatment was performed for 1 hour at room temperature. […] After further washing the wells, a secondary antibody, anti-rabbit IgG conjugated with horseradish peroxidase (manufactured by Jackson ImmunoResearch; 1/4000 ELISA buffer-diluted solution), was applied to the wells, and incubation was performed for 30 minutes at room temperature. After washing the wells once again, 50 μl of tetramethyl benzidine (TMB) aqueous solution (manufactured by Nacalai Tesque, Inc.) was applied to the wells, and a coloring reaction was performed for 30 minutes at room temperature. Thereafter, the coloring reaction was stopped by adding 50 μl of 2M H2SO4 to the wells. An absorptiometric level of 450 nm was measured in each well using ARVO SX (manufactured by Wallac).

T1 sequence (Q9BVS4 whole entry, the tested form may be a part): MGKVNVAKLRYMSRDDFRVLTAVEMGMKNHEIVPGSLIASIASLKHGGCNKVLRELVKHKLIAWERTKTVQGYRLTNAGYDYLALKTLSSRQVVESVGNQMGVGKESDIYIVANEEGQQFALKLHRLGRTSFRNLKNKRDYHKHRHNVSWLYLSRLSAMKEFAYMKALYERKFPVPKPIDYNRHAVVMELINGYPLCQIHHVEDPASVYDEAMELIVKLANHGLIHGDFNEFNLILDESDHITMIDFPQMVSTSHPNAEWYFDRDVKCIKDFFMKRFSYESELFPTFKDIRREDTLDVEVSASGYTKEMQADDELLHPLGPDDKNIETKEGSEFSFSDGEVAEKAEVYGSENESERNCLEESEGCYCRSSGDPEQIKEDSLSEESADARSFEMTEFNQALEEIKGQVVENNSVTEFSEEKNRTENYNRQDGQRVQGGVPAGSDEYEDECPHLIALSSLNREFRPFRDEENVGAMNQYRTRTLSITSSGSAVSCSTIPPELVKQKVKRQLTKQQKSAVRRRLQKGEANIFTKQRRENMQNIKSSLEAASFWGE

| Compound | IC50 (A549) [µM] | IC50 (ACHN) [µM] | IC50 (FaDu) [µM] | IC50 (FaDu CSC) [µM] | IC50 (A549 CSC) [µM] | IC50 (ACHN CSC) [µM] | inhibition at 1 µM (human RIOK2 protein; read-out: Inhibitory activity at 1 μM (%)) [%] | inhibition at 10 µM (human RIOK2 protein; read-out: Inhibitory activity at 10 μM (%)) [%] | activity at 5 µM (p-AMPK Thr172; 5 uM compound, Western blot) [%] | activity at 5 µM (p-RPS6 Ser235/236; 5 uM compound, Western blot) [%] | activity at 5 µM (p-RPS6 Ser240/244; 5 uM compound, Western blot) [%] | activity at 5 µM (p-AMPK Thr172; 5 uM) [%] | activity at 5 µM (p-RPS6 Ser235/236; 5 uM) [%] | activity at 5 µM (p-RPS6 Ser240/244; 5 uM) [%] |
| --- | --- | --- | --- | --- | --- | --- | --- | --- | --- | --- | --- | --- | --- | --- |
| CCN(CC)CCNC(=O)c1c(C)[nH]c(/C=C2\C(=O)Nc3c2cccc3-c2cncnc2)c1C [Example 282] | 21.5 | 16.4 | 36.3 | 6.73 | 27.5 | 10.9 |  |  | 60 | 71 | 72 |  |  |  |
| CCN(CC)CCNC(=O)c1c(C)[nH]c(/C=C2\C(=O)Nc3cccc(-c4ccc(-c5ccccc5)cc4)c32)c1C [Example 109] | 5.09 | 1.6 | 1.11 | 0.28 | 4.32 | 0.33 |  |  |  |  |  | 8 | 2 | 23 |
| CCN(CC)CCNC(=O)c1c(C)[nH]c(/C=C2\C(=O)Nc3c2cccc3-c2cncc(C)c2)c1C [Example 283] | 3.36 | 1.68 | 6.23 | 2.2 | 2.23 | 1.97 |  |  | 50 | 47 | 59 |  |  |  |
| CCN(CC)CCNC(=O)c1c(C)[nH]c(/C=C2\C(=O)Nc3ccc(-c4csc(-c5ccc(O)cc5)n4)cc32)c1C [Example 126] | 3.06 | 1.38 | 0.7 | 1.85 | 6.99 | 0.5 |  |  |  |  |  | 47 | 79 | 88 |
| Cc1cc(C)c(/C=C2\C(=O)Nc3cccc(-c4ccncc4)c32)[nH]1 [Example 272] | 13.1 | 19.8 | 19.6 | 12.2 | 30.3 | 16.2 |  |  | 75 | 50 | 47 |  |  |  |
| CCN(CC)CCNC(=O)c1c(C)[nH]c(/C=C2\C(=O)Nc3ccc(-c4ccc(-c5ccccc5)o4)cc32)c1C [Example 56, (Z)-N-(2-(diethylamino)ethyl)-2,4-dimethyl-5-((2-oxo-5-(5-phenylfuran-2-yl)indolin-3-ylidene)methyl)-1H-pyrrole-3-carboxamide] | 4.3 | 3.66 | 3.09 | 1.41 | 8.25 | 0.25 |  |  |  |  |  | 144 | 19 | 64 |
| Cc1[nH]c(/C=C2\C(=O)Nc3cc(-c4csc(-c5ccccc5)n4)ccc32)c(C)c1C(=O)N1CCN(C)CC1 [Example 8] | 26.3 | 11.6 | 4.74 | 1.03 | 1.22 | 0.39 |  |  |  |  |  | 150 | 33 | 73 |
| Cc1[nH]c(/C=C2\C(=O)Nc3c2cccc3-c2csc(-c3ccccc3)n2)c(C)c1C(=O)N1CCN(C)CC1 [Example 10] | 5.41 | 15.2 | 5.41 | 2.99 | 4.19 | 0.5 |  |  |  |  |  | 122 | 2 | 32 |
| CCN(CC)CCNC(=O)c1c(C)[nH]c(/C=C2\C(=O)Nc3c2cccc3-c2ccc3cc[nH]c3c2)c1C [Example 285] | 2.91 | 3 | 2.77 | 2.06 | 3.9 | 1.86 |  |  | 39 | 29 | 44 |  |  |  |

The next molecules have a lower IC50 (A549) than those just listed; values first:

| IC50 (A549) [µM] | IC50 (ACHN) [µM] | IC50 (FaDu) [µM] | IC50 (FaDu CSC) [µM] | IC50 (A549 CSC) [µM] | IC50 (ACHN CSC) [µM] | inhibition at 1 µM (human RIOK2 protein; read-out: Inhibitory activity at 1 μM (%)) [%] | inhibition at 10 µM (human RIOK2 protein; read-out: Inhibitory activity at 10 μM (%)) [%] | Compound | activity at 5 µM (p-AMPK Thr172; 5 uM compound, Western blot) [%] | activity at 5 µM (p-RPS6 Ser235/236; 5 uM compound, Western blot) [%] | activity at 5 µM (p-RPS6 Ser240/244; 5 uM compound, Western blot) [%] | activity at 5 µM (p-AMPK Thr172; 5 uM) [%] | activity at 5 µM (p-RPS6 Ser235/236; 5 uM) [%] | activity at 5 µM (p-RPS6 Ser240/244; 5 uM) [%] |
| --- | --- | --- | --- | --- | --- | --- | --- | --- | --- | --- | --- | --- | --- | --- |
| 2.53 | 1.64 | 2.53 | 1.65 | 11.7 | 0.22 | 53 | 91 | Cc1[nH]c(/C=C2\C(=O)Nc3ccc(-c4cnn(-c5ccccn5)c4)cc32)c(C)c1C(=O)NCCN1CCCC1 [Example 33] |  |  |  | 52 | 82 | 92 |
| 2.02 | 5.38 | 2.72 | 4.81 | 3.79 | 0.65 |  |  | CCN(CC)CCNC(=O)c1c(C)[nH]c(/C=C2\C(=O)Nc3ccc(-c4ccc(-c5ccccc5)cn4)cc32)c1C [Example 197] |  |  |  | 118 | 61 | 82 |
| 1.96 | 3.2 | 3.75 | 1.26 | 1.57 | 0.28 |  |  | CCN(CC)CCNC(=O)c1c(C)[nH]c(/C=C2\C(=O)Nc3c2cccc3-c2csc(-c3ccccc3)n2)c1C [Example 9] |  |  |  | 144 | 2 | 32 |
| 1.74 | 1.37 | 1.37 | 0.11 | 0.62 | 0.97 |  |  | CCN(CC)CCNC(=O)c1c(C)[nH]c(/C=C2\C(=O)Nc3ccc(-c4csc(-c5ccccc5)n4)nc32)c1C [Example 118] |  |  |  | 35 | 5 | 42 |
| 1.43 | 1.52 | 1.73 | 0.17 | 2.47 | 0.4 |  |  | Cc1[nH]c(/C=C2\C(=O)Nc3ccc(-c4csc(-c5ccccc5)n4)nc32)c(C)c1C(=O)NCCN1CCCC1 [Example 119] |  |  |  | 41 | 13 | 51 |
| 1.4 | 1.12 | 2.55 | 2.96 | 3 | 0.26 |  |  | Cc1cc(C)c(/C=C2\C(=O)Nc3ccc(-c4ccc5cn[nH]c(=O)c5c4)cc32)[nH]1 [Example 240] |  |  |  | 39 | 1 | 24 |
| 1.34 | 1.64 | 1.58 | 0.48 | 1.7 | 0.05 |  |  | Cc1cc(C)c(/C=C2\C(=O)Nc3ccc(-c4csc(C5CCCNC5)n4)cc32)[nH]1 (centres unmarked) [Example 140] |  |  |  | 69 | 6 | 34 |
| 0.84 | 1.31 | 2.82 | 4.31 | 3.9 | 1.06 |  |  | CCN(CC)CCNC(=O)c1c(C)[nH]c(/C=C2\C(=O)Nc3ccc(-c4cccnc4)cc32)c1C [Example 210] |  |  |  | 8 | 1 | 31 |
